# Laboratory results published in patent US20250137032A1, “TWO-COMPONENT SYSTEMS FOR USE IN CELL-FREE GENE EXPRESSION” (priority 2023, published 2025).
# Entries after “also recorded” stand apart in the source; their conditions may differ.
# What was measured:
# NarX [1] = target: T1, NarX (Escherichia coli, UniProt P0AFA2, T450I/V366A); experiment: Cell-free NarX-L nitrate sensing, nanoluciferase reporter luminescence; format: biochemical, E. coli
# T1 construct: All genes were; made in house; host or cells: cell-free expression in situ, myTXTL E. coli extract (Arbor Biosciences), with synthetic lipid vesicles
# T1 sequence (P0AFA2 other isoform, or with tags, fused parts or gaps V366A/T450I): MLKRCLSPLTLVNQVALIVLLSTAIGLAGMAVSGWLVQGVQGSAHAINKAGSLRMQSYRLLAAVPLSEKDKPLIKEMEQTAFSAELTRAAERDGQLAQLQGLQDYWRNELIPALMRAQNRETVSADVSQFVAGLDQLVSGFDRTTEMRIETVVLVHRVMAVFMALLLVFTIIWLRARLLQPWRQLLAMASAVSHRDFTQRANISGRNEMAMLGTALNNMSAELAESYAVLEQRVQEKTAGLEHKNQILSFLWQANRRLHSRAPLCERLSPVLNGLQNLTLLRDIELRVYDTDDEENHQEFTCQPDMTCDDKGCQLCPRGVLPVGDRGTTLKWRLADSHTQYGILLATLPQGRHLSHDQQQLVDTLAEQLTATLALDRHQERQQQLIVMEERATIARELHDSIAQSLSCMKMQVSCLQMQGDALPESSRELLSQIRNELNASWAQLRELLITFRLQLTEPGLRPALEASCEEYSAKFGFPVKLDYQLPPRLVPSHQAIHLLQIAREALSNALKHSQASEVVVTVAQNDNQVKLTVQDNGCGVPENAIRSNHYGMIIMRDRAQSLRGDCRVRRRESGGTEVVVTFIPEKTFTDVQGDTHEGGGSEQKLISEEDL
# Excerpt: As a first step towards understanding how TCSs can be integrated into cell-free systems, we tested the functional expression of NarX and NarL. The analyte for this sensor, nitrate, is a known ground water contaminate (30), serves as a convenient input, and previous work has characterized and engineered NarL mutants and its cognate promoter (26), ensuring that downstream gene transcription is a result of cell-free expressed NarL. We assembled cell-free reactions containing the myTXTL system (31), three DNA templates, liposomes, and assessed the reactions in response to nitrate addition. Two templates contained genes for either NarX or a NarL mutant (26) under the control of T7 RNA polymerase. The third template served as a genetic reporter for TCS signaling and contained a reporter gene (nanoluciferase) under the control of a promoter to which NarL binds (32). Finally, we included 100 nm lipid vesicles composed of 1,2-dimyristoyl-sn-glycero-3-phosphocholine (DMPC) into which NarX could integrate (FIG. 1A). Upon addition of nitrate, NarX should phosphorylate NarL, which should then bind the reporter plasmid and induce downstream luciferase expression (FIG. 1A).
# (§1) Protein expression was performed using the myTxTl system (Arbor Biosceinces). 5 μL reactions were assembled with 10 mM lipid, 0.1 nM plasmid encoding T7 RNA polymerase, 9.9 nM plasmids encoding NarX, NarL, and reporter gene (nano luciferase or GFP) in specified ratios, and various concentration of ligands. Cell-free reactions were allowed to progress at 30° C. for 16 hours. Luciferase luminescence was read using the NanoGlo luciferase system and GFP fluorescence (ex. 480 nm, em. 507 nm) was read using a Molecular Devices Spectra Max i3 plate reader. To calculate fold change, luminescence values in the presence of nitrate were divided by the luminescence values in the absence of nitrate for each replicate.
# NarX [2] = target: T1, NarX; experiment: Cell-free NarX-L system encapsulated in giant unilamellar vesicles; format: biochemical, E. coli; conditions: 1 mM nitrate, GUVs of POPC:cholesterol with rhodamine lipid, 30° C. 16 hours, with RNase
# Excerpt: Over the last decade, many promising cell-free systems have been developed, enabling the delivery and sensing of a wide array of ligands in non-ideal environments. Cell-free systems have been encapsulated and administered to mice (47), lyophilized and used in resource limited settings (6, 7), and integrated into wearable materials to sense environmental contaminants (8). Towards the goal of creating cell-mimetic particles which can sense environmental stimuli in complex environments, such as the body, we encapsulated our cell-free system into giant unilamellar vesicles using the emulsion transfer method (FIG. 5A). We encapsulated cell-free extract containing plasmids encoding NarX, NarL, and the downstream protein (luciferase or mEGFP) into membranes composed of 1 POPC: 1 cholesterol and a rhodamine conjugated lipid. We hypothesized that by encapsulating cell-free reaction components into vesicles, NarX could insert into membranes and initiate signaling in response to exogenously added nitrate. […]
# For samples containing the luciferase plasmid, 0.5 μL of NanoGlo Luciferase substrate was added to the reaction, and reactions were read on a Molecular Devices Spectra Max i3 plate reader. […] Images were analyzed using the Nikon NIS software.
# [3] = test system: cell-free protein synthesis; experiment: Cell-free protein synthesis (myTXTL): NarX western blot band intensity and luminescence; format: biochemical, E. coli; conditions: increasing ligand concentration; NarX band intensity / luminescence (FIG. 7, FIG. 14)
# Procedure: as §1
# 1 μL of cell-free reaction was diluted to 15 μL in Laemlli buffer and heated at 95° C. for 10 minutes. Samples were then loaded and run on a 12% Mini-PROTEAN TGX Precast Protein Gel (Bio-Rad) at 150 V for 90 minutes. Wet transfer was performed onto a PVDF membrane (Bio-Rad) for 45 min at 100 V. Membranes were then blocked for an hour at room temperature in 5% milk in TBST (pH 7.6:50 mM Tris, 150 mM NaCl, HCl to pH 7.6, 0.1% Tween) and incubated for 1 hour at room temperature or overnight at 4° C. with primary solution (anti-Flag (Sigma F1804) or anti-Myc (ab32), diluted 1:1000 in 5% milk in TBST). Primary antibody solution was decanted, and the membrane was washed three times for 5 minutes in TBST and then incubated in secondary solution at room temperature for 1 hour (HRP-anti-Mouse (CST 7076) diluted 1:3000 in 5% milk in TBST). Membranes were then washed in TBST and incubated with Clarity Western ECL Substrate (Bio-Rad) for 5 min. Blots were imaged using an Azure Biosystems c280 imager and band intensities were quantified with ImageJ.
# NarX [4] = target: T1, NarX; experiment: Lyophilized NarX-L reactions rehydrated in non-ideal media; format: biochemical, E. coli; conditions: 100 μM nitrate; rehydrated with Milli-Q water, lake water or FBS; 30° C.
# Procedure: As a control, we flash froze reactions and allowed them to proceed without lyophilization. […] To remediate this, we lyophilized vesicles and reactions separately. When rehydrating reactions, we rehydrated vesicles with water and then mixed the rehydrated vesicles, lyophilized cell-free components, and rehydration media (water, lake water, or FBS) with or without 100 μM nitrate. We then allowed reactions to proceed at 30° C. […] To deploy biosensors out of the lab, one must understand how quickly they are able to sense a ligand. […] We furthermore envision that these systems could be leveraged to engineer targeted drug delivery systems or for point-of-use biosensing.
# Cell-free reactions were prepared as above, omitting vesicles and ligand. Reactions and vesicles were then flash frozen and lyophilized overnight. Following lyophilization, vesicles were rehydrated in water and cell free reactions were rehydrated in various media, such as Mili-Q water, Lake Water from Lake Michigan, and 50% FBS containing either 100 μM nitrate or an equivalent volume of water. Vesicles and reactions were allowed to rehydrate for 30 minutes on ice. Finally, vesicles were added to each reaction to bring the total volume to 5 μL and reactions were allowed to proceed at 30° C. for 16 hours.
# [5] = Dynamic light scattering of 100% POPC vesicles in the presence of ligands (liposome stability); format: physicochemical; conditions: 100% POPC vesicles in the presence of 1 mM ligand
compound,measurement,setting,value
"O=[N+]([O-])[O-].[Na+] [Nitrate, sodium nitrate]",increase in luminescence in nitrate titration,NarX [1]; absence of vesicles (FIG. 1C),2 fold
same,increase in luminescence compared to reactions run in the absence of nitrate,"NarX [1]; all components present, DMPC vesicles (FIG. 1B)",~3 fold
same,time to differentiate a positive from a negative signal (luminescence over time),"NarX [1]; nitrate sample vs water sample, p<0.03, n=2 (FIG. 18)",6.5 h
same,nitrate concentration at which the cell-free system lost sensitivity,NarX [1]; nitrate titration,10 mM
same,detection of nitrate at levels as low as,"NarX [1]; nitrate titration, cell-free system",10 µM
same,specificity of activation by ligand,"NarX [1]; wild-type NarX, nitrate vs nickel (FIG. 4F)",specifically turn ‘on’
same,sensing of exogenously added nitrate by encapsulated sensor (microscopy and bulk plate reader),NarX [2],able to sense exogenous nitrate
same,effect on cell-free protein expression,[3],inhibit protein synthesis; also recorded: inhibits protein expression
same,sensing of nitrate after lyophilization and rehydration,NarX [4],could sense 100 μM nitrate in all conditions
same,Diameter (nm),[5],123.26 nm
same,P.D.I.,[5],0.278
